One molecule from patent US20250084036A1, “COMPOUND, ALDEHYDE DEHYDROGENASE 2 ACTIVATOR, PHARMACEUTICAL COMPOSITION, AND THERAPEUTIC AND/OR PROPHYLACTIC DRUG” (Alchemedicine, Inc., priority 2022, published 2025) can be followed below.

Data set [1] deals with T1, human recombinant ALDH2 enzyme (Homo sapiens, UniProt P05091).
T1 construct: purchased Abcam ab87415
T1 sequence (P05091 18-517): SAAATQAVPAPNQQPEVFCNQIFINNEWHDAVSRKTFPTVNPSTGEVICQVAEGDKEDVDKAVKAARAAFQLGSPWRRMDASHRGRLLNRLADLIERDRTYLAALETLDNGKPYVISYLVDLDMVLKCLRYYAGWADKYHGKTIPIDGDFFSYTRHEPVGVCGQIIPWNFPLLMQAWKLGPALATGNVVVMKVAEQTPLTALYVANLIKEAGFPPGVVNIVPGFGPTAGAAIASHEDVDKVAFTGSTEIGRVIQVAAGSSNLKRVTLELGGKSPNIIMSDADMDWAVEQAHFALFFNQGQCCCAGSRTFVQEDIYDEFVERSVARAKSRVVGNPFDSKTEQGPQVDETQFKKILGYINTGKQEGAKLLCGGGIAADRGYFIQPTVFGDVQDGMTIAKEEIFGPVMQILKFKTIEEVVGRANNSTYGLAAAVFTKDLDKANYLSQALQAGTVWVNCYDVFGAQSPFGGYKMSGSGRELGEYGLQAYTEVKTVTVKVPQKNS
Kind of data set: Test Example 1-1: ALDH2 activation effect (acetaldehyde oxidation rate, PicoProbe kit). The settings on record: ALDH2 2 μg/mL, 180 min measurement. Format: biochemical. How it is done:
The activation effect of each test compound on the acetaldehyde oxidation rate of ALDH2 was measured with the following method. A test was conducted by using a commercially available PicoProbe™ Aldehyde dehydrogenase Activity Assay Kit (manufactured by BioVision Inc.) with reference to an instruction attached to the product under the following conditions. To each well of a 384-well plate, the following (1) to (3) were sequentially added with a pipette: • (1) 10 μL of solution obtained by dissolving and diluting a human recombinant ALDH2 enzyme (manufactured by Abcam, product number: ab87415) with ALDH assay Buffer (final concentration: 2 μg/mL); • (2) 10 μL of 30 μM or 90 μM test compound solution (with 3% DMSO) prepared by using ALDH assay Buffer; and • (3) 10 μL of Reaction mix composed with ratio of […] of ALDH assay Buffer, 0.6 μL of PicoProbe, 0.3 μL of Substrate Mix, and 1.5 μL of Acetaldehyde.
Before addition of (3), incubation was performed at room temperature for 5 minutes. After addition of (3), fluorescence intensity was measured at room temperature every 2.5 minutes over a period of 180 minutes by using an EnSight (manufactured by PerkinElmer Inc.) to determine the oxidation rate. Wavelengths of 535 nm and 587 nm were used for fluorescence intensities of excitation and emission, respectively.

Data set [2] is described as follows: Test Example 2: Metabolic stability with mouse hepatic microsomes. Note: tested at 0.99 µM. Format: in vitro ADME. To be noted: after 30 minutes, 37° C., NADPH. How it is done:
Metabolic stability in mouse hepatic microsomes was evaluated with the following method.
• (1) Mouse hepatic microsomes: 20 mg/mL • (2) Test compound: 1.1 mM DMSO solution • (3) Potassium phosphate buffer solution: 66.7 mM (pH 7.4) • (4) NADPH solution: 10 mM in potassium phosphate buffer solution • (5) Quenching solution: 0.5% formic acid-acetonitrile solution with warfarin as internal standard substance
Into a propylene tube, 971.5 μL of the potassium phosphate buffer solution and 27.5 μL of the mouse hepatic microsomes were put, and suspended. Thereto, 1 μL of a test compound was added, and 180 μL was taken from this mixture and transferred into another tube. The mixture was preincubated at 37° C. for 5 minutes, and 20 μL of the NADPH solution (for the case with an incubation time of 30 minutes) or 20 μL of the potassium phosphate buffer solution (for the case with an incubation time of 0 minutes) was then added thereto. After incubation, 200 μL of the quenching solution was added to terminate the reaction. Subsequently, centrifugation was performed at 3220×g for 20 minutes, and the concentration of the unchanged form of the test compound in 200 μL of the supernatant was measured with LC-MS/MS. On the basis of the peak area obtained for the unchanged form, the residual rate (%) of the unchanged form was calculated as that for the case with an incubation time of 0 minutes was assumed as 100%.

The nature of data set [3]: Test Example 3: Metabolic stability with human hepatic microsomes. The data set is classed as in vitro ADME. The settings on record: human hepatic microsomes 0.1 mg protein/mL, 0.1 μmol/L test compound, after 30 minutes, 37° C. How it is done: For the compounds of Examples 1 to 9, which had been confirmed to have stability in the mouse hepatic microsome test, metabolic stability with human hepatic microsomes was measured. The specific method is as follows. • (1) Fifty microliter-portions were taken from 0.2 μmol/L test compound diluted with β-NADPH solution. • (2) Fifty microliters of 0.2 mg protein/mL human hepatic microsome solution was added to each (except for a sample with a reaction time of 0 minutes). • (3) Incubation was performed with shaking at 37° C. for 30 minutes (concentration in reaction sample: 0.1 μmol/L test compound, 0.1 mg protein/mL human hepatic microsome) • (4) After incubation, 400 μL of methanol was added to terminate the reaction. • (5) To the sample with a reaction time of 0 minutes, 50 μL of 0.2 mg protein/mL hepatic microsome solution was added. • (6) Each of the samples from (4) and (5) was left to stand at −20° C. for 30 minutes or longer, and then centrifuged at 4° C. and 3,000 rpm for approximately 10 minutes. • (7) The supernatant was subjected to measurement with LC/MS/MS, and, on the basis of the peak area obtained for the unchanged form, the residual rate (%) of the unchanged form was calculated as that for the case with an incubation time of 0 minutes was assumed as 100%.

The subject of data set [4] is pain induced by carrageenan, C57BL/6J mice. Kind of data set: Test Example 5: Suppression effect on pain induced by carrageenan (von Frey escape score). To be noted: mean ± SE, n=8. The data set is classed as in vivo, mouse. How it is done:
This experiment was carried out with reference to Science Translational Medicine 6, 251ra118 (2014). Animals used were 7-week-old male C57BL/6J mice (The Jackson Laboratory Japan, Inc.). To induce mechanical allodynia to a sole part, carrageenan was subcutaneously administered to the sole of the left hind limb of each mouse. The escape response against mechanical stimulation 180 minutes after the induction was measured by using a von Frey filament with bending force (0.16 grams) to the sole surface of the left hind limb in the ascending direction. The mouse was stimulated in the vertical direction for 6 seconds until the filament bent, and the escape response of the mouse was rated with three-grade scoring (0: no response or startle response (displacing the foot without ascending), 1: ascending the foot, 2: licking or shaking the foot). Stimulation was performed 10 times, and the total value of 10 scores (escape score) was calculated.
The compound (Example 3) was dissolved in DMSO/PEG400 (volume ratio: 1:1), and 2, 6, or 20 mg/kg (no compound for a Vehicle group) of the compound was subcutaneously administered to the back of the neck three times in total at the same dose: 15 minutes before injection of carrageenan, 30 minutes after injection of carrageenan, and 150 minutes after injection of carrageenan, each at a dose of 5 mL/kg in liquid volume. A 1.5% carrageenan solution was prepared with physiological saline, and subcutaneously administered to the sole of the left hind limb at 7 μL/body.
In significance test, multiple comparison by the Steel's test was carried out for comparison between the Vehicle group and Example 3 group, where the significance level was set to 5%, and calculation was separately performed for lower than 5% (p<0.05) and for lower than 1% (p<0.01). The commercially available statistical program SAS SYSTEM (SAS Institute Japan Ltd.) was used for the significance test.

As to `COc1ncc(CNC(=O)c2cc(-c3ncccc3CO)ccc2F)cc1F` [Example 3, 2-Fluoro-N-((5-fluoro-6-methoxypyridin-3-yl)methyl)-5-(3-(hydroxymethyl)pyridin-2-yl)benzamide], the entries for the “acetaldehyde oxidation rate (no test compound = 100%)” value in data set [1] (test compound 10 μM) and in data set [1] (test compound 30 μM) were 188% and 226%, respectively. The “Residual rate (%) of unchanged form” value in data set [2] and in data set [3] was 93% each time. Besides, the Pain-related total score in data set [4] (2 mg/kg s.c. three times, 180 min after induction with carrageenan, p<0.01 vs Vehicle (9.4 ± 0.5)) is reported as 5.3 ± 0.3; in data set [4] (2 mg/kg s.c. three times, Pre (before induction)), 1.8 ± 0.5; in data set [4] (6 mg/kg s.c. three times, 180 min after induction with carrageenan, p<0.01 vs Vehicle (9.4 ± 0.5)) it was 4.6 ± 0.3; in data set [4] (6 mg/kg s.c. three times, Pre (before induction)), 1.8 ± 0.5; in data set [4] (20 mg/kg s.c. three times, 180 min after induction with carrageenan, p<0.01 vs Vehicle (9.4 ± 0.5)), 3.9 ± 0.3; in data set [4] (20 mg/kg s.c. three times, Pre (before induction)) it was 1.8 ± 0.4.
